According to PMC10722238, “Development and validation of PAMPA-BBB QSAR model to predict brain penetration potential of novel drug candidates” (Frontiers in Pharmacology, 2023):

Experiment: Stirring Double-Sink PAMPA-BBB permeability assay
Format: in vitro ADME, porcine
Details: for PAMPA-BBB permeability category of control compound: control compounds used in each plate, category in words; for Papp at 60 min, 0.05 mM: pig, PAMPA, control compounds run in each plate for over 50 plates, 0.5% DMSO, phosphate buffer, room temperature, UV readout, read-out: PAMPA-BBB permeability Pe (mean ± S.D)
Source text: The stirring Double-SinkTM PAMPA-BBB method patented by Pion Inc. (Billerica, MA) was employed to determine the permeability of compounds ([[…], 2013]). The PAMPA lipid membrane, which consists of porcine brain lipid extract dissolved in alkane (Pion Inc.), was optimized to predict BBB passive permeability. This membrane was immobilized on a PVDF matrix of a 96 well “acceptor” filter plate placed on top of a 96 well “donor” plate containing coated magnetic stirrers. The test articles, stocked in 10 mM DMSO solutions, were diluted to 0.05 mM in aqueous phosphate buffer and the concentration of DMSO was 0.5% in the final solution. During the 60-min permeation study period, conducted at room temperature, the test samples in the donor compartment were stirred using the Gutbox technology (Pion Inc.) to reduce the aqueous boundary layer to 60 μm. The test article concentrations in the “donor” and “acceptor” compartments were measured using a UV plate reader (Nano Quant, Infinite® 200 PRO, Tecan Inc., Männedorf, Switzerland). Permeability (Pe) calculations were performed using Pion Inc. Software and were expressed in units of 10^-6 cm/s.

Row | PAMPA-BBB permeability category of control compound | Papp at 60 min, 0.05 mM | SMILES
1 | moderate permeability | 21 ± 2.3 ×10⁻⁶ cm/s | NC(=O)N1c2ccccc2C=Cc2ccccc21 [Carbamazepine, carbamazepine]
2 | high permeability | 87 ± 10.1 ×10⁻⁶ cm/s | CC(=O)[C@H]1CC[C@H]2[C@@H]3CCC4=CC(=O)CC[C@]4(C)[C@H]3CC[C@]12C [Progesterone, progesterone]

Row | SMILES | PAMPA-BBB permeability category of control compound | Papp at 60 min, 0.05 mM
3 | Cn1c(=O)c2c(ncn2C)n(C)c1=O [Caffeine, caffeine] | low permeability | < 1 ×10⁻⁶ cm/s
